Measured values: PubChem BioAssay (NCI)
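All cell lines were grown in 96-well plates and treated with compound for 48 hours. GI50 is the concentration that inhibits growth by half. TGI denotes the concentration required for complete inhibition of growth.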

Key:
Assay in all cases: growth of human tumour cells (NCI), 48 h
RPMI-8226 leukemia = test system: RPMI-8226 leukemia
NCI-H460 lung = test system: NCI-H460 lung
HOP-92 NSCLC = test system: HOP-92 NSCLC
SN12C renal = test system: SN12C renal
CCRF-CEM leukemia = test system: CCRF-CEM leukemia
HOP-62 NSCLC = test system: HOP-62 NSCLC
RXF 393 renal = test system: RXF 393 renal
TK-10 renal = test system: TK-10 renal
SW-620 colon = test system: SW-620 colon
HL-60(TB) leukemia = test system: HL-60(TB) leukemia
SNB-19 CNS = test system: SNB-19 CNS
OVCAR-4 ovarian = test system: OVCAR-4 ovarian
NCI-H226 lung = test system: NCI-H226 lung
M14 melanoma = test system: M14 melanoma
SF-268 CNS = test system: SF-268 CNS
SF-539 CNS = test system: SF-539 CNS
HS 578T breast = test system: HS 578T breast
ACHN renal = test system: ACHN renal
OVCAR-3 ovarian = test system: OVCAR-3 ovarian
HT29 colon = test system: HT29 colon
SF-295 CNS = test system: SF-295 CNS
U251 CNS = test system: U251 CNS
HCT-116 colon = test system: HCT-116 colon
HCC-2998 colon = test system: HCC-2998 colon
COLO 205 colon = test system: COLO 205 colon
UO-31 renal = test system: UO-31 renal
DU-145 prostate = test system: DU-145 prostate
UACC-62 melanoma = test system: UACC-62 melanoma
A498 renal = test system: A498 renal
MCF7 breast = test system: MCF7 breast
BT-549 breast = test system: BT-549 breast
SNB-75 CNS = test system: SNB-75 CNS
SK-MEL-5 melanoma = test system: SK-MEL-5 melanoma
T-47D breast = test system: T-47D breast
MDA-MB-435 = test system: MDA-MB-435
LOX IMVI melanoma = test system: LOX IMVI melanoma
MOLT-4 leukemia = test system: MOLT-4 leukemia
MALME-3M melanoma = test system: MALME-3M melanoma
786-0 renal = test system: 786-0 renal
K-562 leukemia = test system: K-562 leukemia
HCT-15 colon = test system: HCT-15 colon
PC-3 prostate = test system: PC-3 prostate
UACC-257 melanoma = test system: UACC-257 melanoma
OVCAR-8 ovarian = test system: OVCAR-8 ovarian
EKVX NSCLC = test system: EKVX NSCLC
SR leukemia = test system: SR leukemia
MDA-MB-231 breast = test system: MDA-MB-231 breast
SK-OV-3 ovarian = test system: SK-OV-3 ovarian
KM12 colon = test system: KM12 colon
IGROV1 ovarian = test system: IGROV1 ovarian
OVCAR-5 ovarian = test system: OVCAR-5 ovarian
NCI-H23 lung = test system: NCI-H23 lung
NCI-H522 lung = test system: NCI-H522 lung
CAKI-1 renal = test system: CAKI-1 renal
SK-MEL-28 melanoma = test system: SK-MEL-28 melanoma
MDA-MB-468 breast = test system: MDA-MB-468 breast
A549 NSCLC = test system: A549 NSCLC

For `COc1ccc(N2N=C(c3ccc4c(c3)OCO4)CC2c2cccc(NC(=O)CCNS(=O)(=O)c3ccc(Cl)cc3)c2)cc1` (centres undefined), the GI50 (RPMI-8226 leukemia) was 6.44 µM, the TGI (RPMI-8226 leukemia) was > 100 µM and the GI50 (NCI-H460 lung) was 11.3 µM. The TGI (NCI-H460 lung) was > 100 µM, the GI50 (HOP-92 NSCLC) was 8.13 µM and the TGI (HOP-92 NSCLC) was 76.8 µM. The GI50 (SN12C renal) was 14.4 µM, the TGI (SN12C renal) was > 100 µM and the GI50 (CCRF-CEM leukemia) was 5.4 µM. For the same molecule, the TGI (CCRF-CEM leukemia) was > 100 µM, the GI50 (HOP-62 NSCLC) was 63.4 µM and the TGI (HOP-62 NSCLC) was > 100 µM. The GI50 (RXF 393 renal) was 4.98 µM, the TGI (RXF 393 renal) was > 100 µM and the GI50 (TK-10 renal) was 38.6 µM. For the same molecule, the TGI (TK-10 renal) was > 100 µM, the GI50 (SW-620 colon) was 41.1 µM and the TGI (SW-620 colon) was > 100 µM. The GI50 (HL-60(TB) leukemia) was 25.7 µM, the TGI (HL-60(TB) leukemia) was > 100 µM and the GI50 (SNB-19 CNS) was 16.4 µM. The TGI (SNB-19 CNS) was > 100 µM, the GI50 (OVCAR-4 ovarian) was 19.1 µM and the TGI (OVCAR-4 ovarian) was > 100 µM. The GI50 (NCI-H226 lung) was 18 µM, the TGI (NCI-H226 lung) was > 100 µM and the GI50 (M14 melanoma) was 9.12 µM. The TGI (M14 melanoma) was > 100 µM, the GI50 (SF-268 CNS) was 11.6 µM and the TGI (SF-268 CNS) was > 100 µM. For the same molecule, the GI50 (SF-539 CNS) was 17.5 µM, the TGI (SF-539 CNS) was > 100 µM and the GI50 (HS 578T breast) was 10.6 µM. For the same molecule, the TGI (HS 578T breast) was > 100 µM, the GI50 (ACHN renal) was 11.6 µM and the TGI (ACHN renal) was > 100 µM. The GI50 (OVCAR-3 ovarian) was 47.6 µM, the TGI (OVCAR-3 ovarian) was > 100 µM and the GI50 (HT29 colon) was 7.96 µM. The TGI (HT29 colon) was > 100 µM, the GI50 (SF-295 CNS) was 5.22 µM and the TGI (SF-295 CNS) was 72.2 µM. For the same molecule, the GI50 (U251 CNS) was 20.5 µM, the TGI (U251 CNS) was > 100 µM and the GI50 (HCT-116 colon) was 9.05 µM. The TGI (HCT-116 colon) was > 100 µM, the GI50 (HCC-2998 colon) was 8.75 µM and the TGI (HCC-2998 colon) was > 100 µM. The GI50 (COLO 205 colon) was 25.1 µM, the TGI (COLO 205 colon) was > 100 µM and the GI50 (UO-31 renal) was 15.6 µM. The TGI (UO-31 renal) was > 100 µM, the GI50 (DU-145 prostate) was 13.6 µM and the TGI (DU-145 prostate) was > 100 µM. For the same molecule, the GI50 (UACC-62 melanoma) was 20.4 µM, the TGI (UACC-62 melanoma) was > 100 µM and the GI50 (A498 renal) was 20.6 µM. For the same molecule, the TGI (A498 renal) was 48.1 µM, the GI50 (MCF7 breast) was 4.21 µM and the TGI (MCF7 breast) was > 100 µM. The GI50 (BT-549 breast) was 3.03 µM, the TGI (BT-549 breast) was 20.3 µM and the GI50 (SNB-75 CNS) was 9.46 µM. The TGI (SNB-75 CNS) was > 100 µM, the GI50 (SK-MEL-5 melanoma) was 22.8 µM and the TGI (SK-MEL-5 melanoma) was > 100 µM. The GI50 (T-47D breast) was 7.96 µM, the TGI (T-47D breast) was > 100 µM and the GI50 (MDA-MB-435) was 14.3 µM. The TGI (MDA-MB-435) was > 100 µM, the GI50 (LOX IMVI melanoma) was 12.1 µM and the TGI (LOX IMVI melanoma) was > 100 µM. For the same molecule, the GI50 (MOLT-4 leukemia) was 4.71 µM, the TGI (MOLT-4 leukemia) was > 100 µM and the GI50 (MALME-3M melanoma) was 5.42 µM. The TGI (MALME-3M melanoma) was > 100 µM, the GI50 (786-0 renal) was 18.8 µM and the TGI (786-0 renal) was > 100 µM. For the same molecule, the GI50 (K-562 leukemia) was 3.97 µM, the TGI (K-562 leukemia) was > 100 µM and the GI50 (HCT-15 colon) was 7.25 µM. The TGI (HCT-15 colon) was > 100 µM, the GI50 (PC-3 prostate) was 4.61 µM and the TGI (PC-3 prostate) was > 100 µM. For the same molecule, the GI50 (UACC-257 melanoma) was 77.1 µM, the TGI (UACC-257 melanoma) was > 100 µM and the GI50 (OVCAR-8 ovarian) was 82.8 µM. The TGI (OVCAR-8 ovarian) was > 100 µM, the GI50 (EKVX NSCLC) was 4.36 µM and the TGI (EKVX NSCLC) was > 100 µM. The GI50 (SR leukemia) was 4.68 µM, the TGI (SR leukemia) was > 100 µM and the GI50 (MDA-MB-231 breast) was 8.11 µM. For the same molecule, the TGI (MDA-MB-231 breast) was 96 µM, the GI50 (SK-OV-3 ovarian) was 54.7 µM and the TGI (SK-OV-3 ovarian) was > 100 µM. For the same molecule, the GI50 (KM12 colon) was 12 µM, the TGI (KM12 colon) was > 100 µM and the GI50 (IGROV1 ovarian) was 39.8 µM. The TGI (IGROV1 ovarian) was > 100 µM, the GI50 (OVCAR-5 ovarian) was 51.6 µM and the TGI (OVCAR-5 ovarian) was > 100 µM. For the same molecule, the GI50 (NCI-H23 lung) was 22.6 µM, the TGI (NCI-H23 lung) was > 100 µM and the GI50 (NCI-H522 lung) was 2.73 µM. The TGI (NCI-H522 lung) was 7.92 µM, the GI50 (CAKI-1 renal) was 8.88 µM and the TGI (CAKI-1 renal) was > 100 µM. The GI50 (SK-MEL-28 melanoma) was 7.37 µM, the TGI (SK-MEL-28 melanoma) was > 100 µM and the GI50 (MDA-MB-468 breast) was 7.03 µM. The TGI (MDA-MB-468 breast) was > 100 µM, the GI50 (A549 NSCLC) was 42.4 µM and the TGI (A549 NSCLC) was > 100 µM.
